# Assay results published in patent US20170355687A1, “ANTIBACTERIAL BENZOTHIAZOLE DERIVATIVES” (Actelion Pharmaceuticals Ltd, priority 2014, published 2017).
# Where a name gives a salt, the structure may show the parent alone. Read-outs that look alike come from different tables or passages of the source.
# Tests used:
# Test in all cases: Bacterial growth minimal inhibitory concentration, microdilution in cation-adjusted Mueller-Hinton Broth (CLSI M7-A7)
# Format in all cases: cell-based
# E. coli ATCC25922 = conditions: for MIC: Escherichia coli
# Method: (§1) Minimal Inhibitory Concentrations (MICs; mg/L) were determined in cation-adjusted Mueller-Hinton Broth by a microdilution method following the description given in “Methods for Dilution Antimicrobial Susceptibility Tests for Bacteria that Grow Aerobically”, Approved standard, 7th ed., Clinical and Laboratory Standards Institute (CLSI) Document M7-A7, Wayne, Pa., USA (2006).
# (§2) All Example compounds were tested against several Gram-positive and Gram-negative bacteria. […] K pneumoniae A-651 is a multiply-resistant (in particular quinolone-resistant) strain, while E. coli ATCC25922 and P. aeruginosa ATCC27853 are quinolone-sensitive strains.
# K. Pneumoniae A-651 = conditions: for MIC: Klebsiella pneumoniae, read-out: MIC for K. Pneumoniae A-651
# Method: as §1, §2
# P. aeruginosa ATCC27853 = conditions: for MIC: Pseudomonas aeruginosa
# Method: as §1, §2
# [1] = ATCC25922, quinolone-sensitive strain, read-out: MIC for E. coli ATCC25922
# [2] = multiply-resistant (in particular quinolone-resistant) strain
# [3] = ATCC27853, quinolone-sensitive strain, read-out: MIC for P. aeruginosa ATCC27853
MIC (E. coli ATCC25922; [1]),MIC (K. Pneumoniae A-651; [2]),MIC (P. aeruginosa ATCC27853; [3]),Compound,further results
0.25 µg/mL,2 µg/mL,16 µg/mL,"COc1ccc(-c2ccc3nc(CCC(C)(C(=O)NO)S(C)(=O)=O)sc3c2)cc1 (racemic) [RE1, (RS)-N-hydroxy-4-(6-(4-methoxyphenyl)benzo[d]thiazol-2-yl)-2-methyl-2-(methylsulfonyl)butanamide]",
0.125 µg/mL,0.5 µg/mL,16 µg/mL,"CC(CCc1nc2ccc(C#Cc3ccc(CO)cc3)cc2s1)(C(=O)NO)S(C)(=O)=O (racemic) [RE2, (RS)-N-hydroxy-4-(6-((4-(hydroxymethyl)phenyl)ethynyl)benzo[d]thiazol-2-yl)-2-methyl-2-(methylsulfonyl)butanamide]",
4 µg/mL,1 µg/mL,8 µg/mL,"CC(CCc1nc2ccc(C#Cc3ccc(C4(N)COC4)cc3)cc2s1)(C(=O)NO)S(C)(=O)=O.Cc1ccc(S(=O)(=O)O)cc1 (racemic) [RE3, (RS)-4-(6-((4-(3-aminooxetan-3-yl)phenyl)ethynyl)-benzo[d]thiazol-2-yl)-N-hydroxy-2-methyl-2-(methylsulfonyl)butanamide 4-methyl-benzenesulfonate]",
0.5 µg/mL,8 µg/mL,1 µg/mL,"CC(CCc1nc2ccc(C#CC#CCO)cc2s1)(C(=O)NO)S(C)(=O)=O (racemic) [RE4, (RS)-N-hydroxy-4-(6-(5-hydroxypenta-1,3-diyn-1-yl)benzo[d]thiazol-2-yl)-2-methyl-2-(methylsulfonyl)butanamide]",
,,,"C[C@@](CCc1nc2ccc(C#CC#C[C@]3(O)C[C@@H](CO)C3)cc2s1)(C(=O)NO)S(C)(=O)=O (relative stereo) [Example 21, (R)-N-hydroxy-4-(6-((cis-1-hydroxy-3-(hydroxymethyl)cyclobutyl)buta-1,3-diyn-1-yl)benzo[d]thiazol-2-yl)-2-methyl-2-(methylsulfonyl)butanamide]",MIC for E. coli ATCC25922 (E. coli ATCC25922; quinolone-sensitive strain): 1 µg/mL; MIC for K. Pneumoniae A-651 (K. Pneumoniae A-651; [2]): 2 µg/mL; MIC for P. aeruginosa ATCC27853 (P. aeruginosa ATCC27853; quinolone-sensitive strain): 2 µg/mL
≤ 0.063 µg/mL,0.25 µg/mL,0.5 µg/mL,"C[C@@](CCc1nc2ccc(C#CC#C[C@@]3(F)C[C@@H]3CO)cc2s1)(C(=O)NO)S(C)(=O)=O (relative stereo) [Example 23, (R)-4-(6-(((1R*,2R*)-1-fluoro-2-(hydroxymethyl)cyclopropyl)buta-1,3-diyn-1-yl)benzo[d]thiazol-2-yl)-N-hydroxy-2-methyl-2-(methylsulfonyl)butanamide]",
≤ 0.063 µg/mL,0.25 µg/mL,0.25 µg/mL,"C[C@@](CCc1nc2ccc(C#CC#C[C@H]3C[C@]3(F)CO)cc2s1)(C(=O)NO)S(C)(=O)=O (relative stereo) [Example 24, (R)-4-(6-(((1R*,2R*)-2-fluoro-2-(hydroxymethyl)cyclopropyl)buta-1,3-diyn-1-yl)benzo[d]thiazol-2-yl)-N-hydroxy-2-methyl-2-(methylsulfonyl)butanamide]",
0.25 µg/mL,0.25 µg/mL,1 µg/mL,"C[C@@](CCc1nc2ccc(C#CC#CC3(O)COC3)cc2s1)(C(=O)NO)S(C)(=O)=O (single isomer, unassigned) [Example 1]",
≤ 0.063 µg/mL,0.25 µg/mL,2 µg/mL,"COc1ccc(-c2ccc3nc(CC[C@](C)(C(=O)NO)S(C)(=O)=O)sc3c2)c(F)c1 [Example 2, (R)-4-(6-(2-fluoro-4-methoxyphenyl)benzo[d]thiazol-2-yl)-N-hydroxy-2-methyl-2-(methylsulfonyl)butanamide]",
4 µg/mL,1 µg/mL,8 µg/mL,"C[C@@](CCc1nc2ccc(C#Cc3ccc(C4(O)COC4)cc3)cc2s1)(C(=O)NO)S(C)(=O)=O [Example 3, (R)-N-hydroxy-4-(6-((4-(3-hydroxyoxetan-3-yl)phenyl)ethynyl)benzo[d]thiazol-2-yl)-2-methyl-2-(methylsulfonyl)butanamide]",
0.5 µg/mL,0.5 µg/mL,1 µg/mL,"CC(C)(O)C#CC#Cc1ccc2nc(CC[C@](C)(C(=O)NO)S(C)(=O)=O)sc2c1 [Example 4, (R)-N-hydroxy-4-(6-(5-hydroxy-5-methylhexa-1,3-diyn-1-yl)benzo[d]thiazol-2-yl)-2-methyl-2-(methylsulfonyl)butanamide]",
1 µg/mL,8 µg/mL,1 µg/mL,"C[C@@](CCc1nc2ccc(C#CC#C[C@H](O)CO)cc2s1)(C(=O)NO)S(C)(=O)=O [Example 5, (R)-4-(6-((S)-5,6-dihydroxyhexa-1,3-diyn-1-yl)benzo[d]thiazol-2-yl)-N-hydroxy-2-methyl-2-(methylsulfonyl)butanamide]",
0.25 µg/mL,1 µg/mL,1 µg/mL,"CC(C)(N)C#CC#Cc1ccc2nc(CC[C@](C)(C(=O)NO)S(C)(=O)=O)sc2c1 [Example 6, (R)-4-(6-(5-amino-5-methylhexa-1,3-diyn-1-yl)benzo[d]thiazol-2-yl)-N-hydroxy-2-methyl-2-(methylsulfonyl)butanamide]",
≤ 0.063 µg/mL,0.125 µg/mL,0.5 µg/mL,"C[C@@](CCc1nc2ccc(C#CC#C[C@H]3C[C@@H]3CO)cc2s1)(C(=O)NO)S(C)(=O)=O [Example 7, (R)-N-hydroxy-4-(6-(((1S,2S)-2-(hydroxymethyl)cyclopropyl)buta-1,3-diyn-1-yl)benzo[d]thiazol-2-yl)-2-methyl-2-(methylsulfonyl)butanamide]",
0.25 µg/mL,0.5 µg/mL,0.5 µg/mL,"C[C@@](CCc1nc2ccc(C#CC#CC3(CO)CC3)cc2s1)(C(=O)NO)S(C)(=O)=O [Example 8, (R)-N-hydroxy-4-(6-((1-(hydroxymethyl)cyclopropyl)buta-1,3-diyn-1-yl)benzo[d]thiazol-2-yl)-2-methyl-2-(methylsulfonyl)butanamide]",
1 µg/mL,2 µg/mL,2 µg/mL,"C[C@@](CCc1nc2ccc(C#CC#CC3(N)COC3)cc2s1)(C(=O)NO)S(C)(=O)=O [Example 9, (R)-4-(6-((3-aminooxetan-3-yl)buta-1,3-diyn-1-yl)benzo[d]thiazol-2-yl)-N-hydroxy-2-methyl-2-(methylsulfonyl)butanamide]",
,,,"C[C@@](CCc1nc2ccc(C#CC#CC3(N)CC3)cc2s1)(C(=O)NO)S(C)(=O)=O [Example 10, (R)-4-(6-((1-aminocyclopropyl)buta-1,3-diyn-1-yl)benzo[d]thiazol-2-yl)-N-hydroxy-2-methyl-2-(methylsulfonyl)butanamide hydrochloride]","MIC (E. coli ATCC25922; ATCC25922, read-out: MIC for E. coli ATCC25922): 0.125 µg/mL; MIC (K. Pneumoniae A-651): 0.25 µg/mL; MIC (P. aeruginosa ATCC27853; ATCC27853, read-out: MIC for P. aeruginosa ATCC27853): 1 µg/mL"
0.125 µg/mL,0.5 µg/mL,4 µg/mL,"C[C@@](CCc1nc2ccc(C#Cc3ccc(C4(CO)CC4)cc3)cc2s1)(C(=O)NO)S(C)(=O)=O [Example 11, (R)-N-hydroxy-4-(6-((4-(1-(hydroxymethyl)cyclopropyl)phenyl)ethynyl)benzo[d]thiazol-2-yl)-2-methyl-2-(methylsulfonyl)butanamide]",
0.125 µg/mL,0.5 µg/mL,2 µg/mL,"C[C@@](CCc1nc2ccc(C#CC#CC3(CO)CCC3)cc2s1)(C(=O)NO)S(C)(=O)=O [Example 12, (R)-N-hydroxy-4-(6-((1-(hydroxymethyl)cyclobutyl)buta-1,3-diyn-1-yl)benzo[d]thiazol-2-yl)-2-methyl-2-(methylsulfonyl)butanamide]",
